Laboratory results: patent publication US20090197906A1, “REVERSION OF MALIGNANT PHENOTYPE WITH 9-HYDROXY ELLIPTICINE DERIVATIVES” (priority 2006, published 2009)

Assays:
B16F10 [1] = test: MTT cell proliferation assay; assay type: cell-based, murine
Procedure: Growth studies were performed using the [3-(4,5 dimethylthiazol-2-yl)-2,5-diphenyl-2H-tetrazolium bromide] (Sigma) calorimetric assay.
About 1500 to 5000 cells, according to the cell line, were seeded in a 96-well culture plate 24 hours before adding increasing concentrations of BA016DD537 or BA016FZ539. The plate was incubated at 37° C. for 3 days. 10 μl MTT stock solution (5 mg/ml in phosphate buffer saline) was added to 90 μl of complete medium in each well, the incubation was continued for 3 h at 37° C. 100 μl of lysis buffer (10% sodium dodecyl sulfate, 1% HCl 1N; pH 4.7) was added to each well, and the plate was incubated overnight. The absorbance was determined using an Integrated EIA Management System (Labsystem) at a wavelength of 570 nm. The proliferation rates were calculated from the OD readings using the untreated cells as 100%.
(§1) Growth studies were performed using both MTT and SRB calorimetric assay (Sigma). About 1500 B16F10 or 3000 pancreatic cells (MIA PaCa-2 and PANC1) were seeded in a 96-well culture plate before adding increasing concentrations of monomesylate or bimesylate.
(§2) The plates were incubated at 37° C. for 3 days and then were treated depending on SRB or MTT protocols (see material and methods).
(§3) In these two cases, the proliferation rates were calculated from the OD readings using the untreated cells as 100%.

B16F10 [2] = test: cloning assay in methylcellulose (colony formation); assay type: cell-based, murine
Procedure: (§4) Cells were embedded in complete culture medium supplemented with 0.8% methylcellulose (Methocel MC4000, Sigma), seeded in triplicate into 35-mm dishes (Greiner Bio-one Ref 627102, Dominique Dutscher) and incubated at 37° C. in a humidified 5% CO2 atmosphere. The number of cells seeded was 1000 cells per dish. After one to three weeks, according to cell lines, macroscopic clones were counted.
Cells were embedded in complete culture medium supplemented with 0.8% methyl-cellulose (Methocel MC4000, Sigma), seeded in triplicate into 35-mm dishes and incubated at 37° C. in a humidified 5% CO2 atmosphere. The number of cells seeded was 1000 cells per dish. After 9 days, macroscopic clones of murine melanoma cell line B16F10 were counted.

1205 Lu = test: as above; assay type: cell-based, human; conditions: read-out: Inhibition of colony formation (methylcellulose) IC50
Procedure: as §4

451 Lu = test: as above; assay type: cell-based, human; conditions: read-out: Inhibition of colony formation (methylcellulose) IC50
Procedure: as §4

A375 = test: as above; assay type: cell-based, human; conditions: read-out: Inhibition of colony formation (methylcellulose) IC50
Procedure: as §4

C9 = test: as above; assay type: cell-based, human; conditions: read-out: Inhibition of colony formation (methylcellulose) IC50
Procedure: as §4

HT144 = test: as above; assay type: cell-based, human; conditions: read-out: Inhibition of colony formation (methylcellulose) IC50
Procedure: as §4

Mia Paca-2 [3] = test: as above; assay type: cell-based, human; conditions: read-out: Inhibition of colony formation (methylcellulose) IC50
Procedure: as §4

PANC-1 [4] = test: as above; assay type: cell-based, human; conditions: read-out: Inhibition of colony formation (methylcellulose) IC50
Procedure: as §4

SKMEL28 = test: as above; assay type: cell-based, human; conditions: read-out: Inhibition of colony formation (methylcellulose) IC50
Procedure: as §4

Mia Paca-2 [5] = test: SRB (sulforhodamine B) cell proliferation assay; assay type: cell-based, human
Procedure: (§5) After an incubation period, cell monolayers are fixed with 10% (wt/vol) trichloroacetic acid and stained for 30 min, after which the excess dye is removed by washing repeatedly with 1% (vol/vol) acetic acid. The protein-bound dye is dissolved in 10 mM Tris base solution for optic density determination (OD) at 510 nm using a microplate reader.
(§6) The proliferation rates were calculated from the OD readings using the untreated cells as 100%.
(§7) The effects BA016FZ539 on the growth of MIA PaCa-2 and PANC-1 pancreatic cells were tested over a range of concentrations from 500 μM to 0.16 μM and measured by using the SRB calorimetric assay.
(§8) About 5000 MIA PaCa-2 or PANC-1 cells were seeded in a 96-well culture plate while adding increasing concentrations of BA016FZ539.
as §1, §2, §3

PANC-1 [6] = test: SRB (sulforhodamine B) cell proliferation assay; assay type: cell-based, human
Procedure: as §5, §6, §7, §8, §1, §2, §3

B16F10 [7] = test: SRB (sulforhodamine B) cell proliferation assay; assay type: cell-based, murine; conditions: B16F10 (Example 11); read-out: IC50 (SRB Test-72 h)
Procedure: as §1, §2, §3

[8] = tested on: B16F10 cell pulmonary metastases; test: antimetastatic activity, B16F10 pulmonary metastases after i.v. injection; assay type: in vivo, mice
Procedure: In order to assess the anti-invasive property, the effect of 2-(beta piperidino-2-ethyl)-9-hydroxyellipticinium methanesulfonate on this process has been tested.
100 μl of a B16F10 cellular suspension (4.10^5 cells) were injected using i.v. route into the retro-orbital sinus of the mice. The 2-(beta piperidino-2-ethyl)-9-hydroxyellipticinium methanesulfonate (BA016FZ539) solution was administrated i.v to mice 24 hours and 72 hours after cell injection at a dose of 5 mg/Kg (first experiment) and 7.5 mg/kg (second experiment). In control group, mice were injected iv with physiological serum. Seven days later, the mice were sacrificed, the lungs were excised and metastatic nodules were counted under a dissecting microscope.

Cc1c2cc[n+](CCN3CCCCC3)cc2c(C)c2c1[nH]c1ccc(O)cc12.[Cl-] [BA016DD537, 2-(β-piperidinoethyl)-9-hydroxyellipticinium chloride]
IC50 (B16F10 [1]; B16F10, 3 days, read-out: Cytotoxic effect (MTT) IC50): 500 nM | IC50 (B16F10 [2]; B16F10, read-out: Inhibition of colony formation (methylcellulose) IC50): 35 nM

CS(=O)(=O)[O-].Cc1c2cc[n+](CCN3CCCCC3)cc2c(C)c2c1[nH]c1ccc(O)cc12 [BA016FZ539, 2-(betapiperidino-2-ethyl)-9-hydroxyellipticinium methanesulfonate]
IC50 (B16F10 [1]; B16F10 (Example 11), read-out: IC50 (MTT Test-72 h)): 2000 nM | IC50 (B16F10 [2]; B16F10, clones counted after 9 days (Example 11), listed as Monomesylate, read-out: B16F10 Inhibition of colony formation IC50): 67 nM | IC50 (1205 Lu): 247 nM | IC50 (451 Lu): 2000 nM | IC50 (A375): 97 nM | IC50 (C9): 132 nM | IC50 (HT144): 125 nM | IC50 (Mia Paca-2 [3]): 640 nM | IC50 (PANC-1 [4]): 4300 nM | IC50 (SKMEL28): 515 nM | IC50 (Mia Paca-2 [5]; MIA PaCA-2, viability 72 h, mean +/− SEM (Example 9), read-out: IC50 (μM) SRB): 10.2 µM | IC50 (Mia Paca-2 [5]; Mia Paca-2 (Example 11), read-out: IC50 (SRB Test-72 h)): 5.6 µM | IC50 (PANC-1 [6]; PANC-1 (Example 11), read-out: IC50 (SRB Test-72 h)): 50.4 µM | IC50 (PANC-1 [6]; PANC-1, viability 72 h, mean +/− SEM (Example 9), read-out: IC50 (μM) SRB): 20.7 µM | IC50 (B16F10 [7]): 4300 nM | Inhibition of pulmonary metastases development (% of control values) ([8]; Experiment 1, 5 mg/kg/inj. i.v. J1, J3, p = 0.0904): 21% (p = 0.0904) | Inhibition of pulmonary metastases development (% of control values) ([8]; Experiment 2, 7.5 mg/kg/inj. i.v. J1, J3, p = 0.3269): 39.6% (p = 0.3269)
